Reference: patent publication US7659400B2, “Radiolabelled benzamide analogues, their synthesis and use in diagnostic imaging” (Washington University, priority 2003, dated 2010)

Key:
σ1 receptors = σ1 receptors (Cavia porcellus, UniProt Q60492)
Description: In these assays, the novel sigma ligands were dissolved in N,N-dimethylformamide (DMF), DMSO or ethanol, and then diluted in 50 mM Tris-HCl buffer containing 150 mM NaCl and 100 mM EDTA at pH 7.4 prior to performing the σ1 and σ2 receptor binding assays. […] The samples were harvested and filtered rapidly through a 96-well fiber glass filter plate (millipore, Billerica, Mass.) that had been presoaked with 100 μL of 50 mM Tris-HCl buffer at pH 8.0 for 1 h.
The Ki values were determine from Scatchard plots.

σ2 receptors = target: T1, σ2 receptors (Rattus norvegicus, UniProt Q5U3Y7); assay: σ2 receptor binding assay, [^3H]DTG in the presence of (+)-pentazocine, rat liver membrane homogenates; details: for σ1:σ2 Ratio: ratio of Ki values
T1 construct: conducted using rat liver membrane homogenates; from tissue; host or cells: rat liver membrane homogenates
T1 sequence (Q5U3Y7 1-176): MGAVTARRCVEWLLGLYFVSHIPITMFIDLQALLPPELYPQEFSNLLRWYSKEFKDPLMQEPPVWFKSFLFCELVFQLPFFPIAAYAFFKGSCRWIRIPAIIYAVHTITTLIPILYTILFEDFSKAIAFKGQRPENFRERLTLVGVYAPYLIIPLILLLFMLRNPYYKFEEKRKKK
Description: The incubation time was 120 min at room temperature. […] All other procedures were identical to those described for the σ1 receptor binding assay above.

σ1 receptors, sequence (Q60492 whole entry): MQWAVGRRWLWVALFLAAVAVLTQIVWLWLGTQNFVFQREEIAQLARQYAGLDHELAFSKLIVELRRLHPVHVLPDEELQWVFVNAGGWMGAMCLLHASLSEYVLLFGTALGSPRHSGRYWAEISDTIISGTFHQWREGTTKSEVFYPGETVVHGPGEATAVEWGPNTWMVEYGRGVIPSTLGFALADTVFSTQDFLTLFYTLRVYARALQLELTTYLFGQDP

COc1cc2c(cc1OC)CN(CCNC(=O)c1cc(C)ccc1OCCF)CC2 [compound 3a, [N-(6,7-dimethoxy-3,4-dihydro-1H-isoquinolin-2-yl)-ethyl]-2-(2-fluoro-ethoxy)-5-methyl benzamide]
Ki (σ1 receptors): 22800 nM
Ki (σ2 receptors): 102 ± 4 nM
σ1:σ2 Ratio (σ2 receptors): 222

COc1cc2c(cc1OC)CN(CCCCNC(=O)c1cc(Br)ccc1OCCF)CC2 [compound 3d, N-[4-(6,7-dimethoxy-3,4-dihydro-1H-isoquinolin-2-yl)-butyl]-2-(2-fluoro-ethoxy)-5-bromo-benzamide]
Ki (σ1 receptors): 1080 nM
Ki (σ2 receptors): 0.65 ± 0.22 nM
σ1:σ2 Ratio (σ2 receptors): 1,656

COc1cc2c(cc1OC)CN(CCCCNC(=O)c1cc(I)ccc1OCCF)CC2 [compound 3e, N-[4-(6,7-dimethoxy-3,4-dihydro-1H-isoquinolin-2-yl)-butyl]-2-(2-fluoro-ethoxy)-5-iodo-benzamide]
Ki (σ1 receptors): 1300 nM

COc1cc2c(cc1OC)CN(CCCCNC(=O)c1cc(I)cc(OC)c1OCCF)CC2 [compound 3f]
Ki (σ1 receptors): 2150 nM
Ki (σ2 receptors): 0.26 ± 0.07 nM
σ1:σ2 Ratio (σ2 receptors): 8,190
